ChEMBL document CHEMBL1147945, “R-isomers of Arg-Gly-Asp (RGD) mimics as potent alphavbeta3 inhibitors” (Bioorg Med Chem, 2007)

Tests used:
Integrin alpha-V/beta-3 = Integrin alpha-V/beta-3 (Homo sapiens, UniProt P05106+P06756); assay: Inhibition of alphaVbeta3 integrin receptor expressed in human 293 cells; assay type: cell-based, HEK293
Integrin alpha-V/beta-6 [1] = target: T1, Integrin alpha-V/beta-6 (Homo sapiens, UniProt P06756+P18564); assay: Inhibition of alpha-V-beta-6 integrin receptor in human HT29 cells; assay type: cell-based, HT-29
Integrin alpha-V/beta-6 [2] = target: T1, Integrin alpha-V/beta-6; assay: Inhibition of alpha-V-beta-6 integrin receptor in human 293 cells; assay type: cell-based, HEK293

Chain of Integrin alpha-V/beta-3 (P05106 27-788 limits assumed): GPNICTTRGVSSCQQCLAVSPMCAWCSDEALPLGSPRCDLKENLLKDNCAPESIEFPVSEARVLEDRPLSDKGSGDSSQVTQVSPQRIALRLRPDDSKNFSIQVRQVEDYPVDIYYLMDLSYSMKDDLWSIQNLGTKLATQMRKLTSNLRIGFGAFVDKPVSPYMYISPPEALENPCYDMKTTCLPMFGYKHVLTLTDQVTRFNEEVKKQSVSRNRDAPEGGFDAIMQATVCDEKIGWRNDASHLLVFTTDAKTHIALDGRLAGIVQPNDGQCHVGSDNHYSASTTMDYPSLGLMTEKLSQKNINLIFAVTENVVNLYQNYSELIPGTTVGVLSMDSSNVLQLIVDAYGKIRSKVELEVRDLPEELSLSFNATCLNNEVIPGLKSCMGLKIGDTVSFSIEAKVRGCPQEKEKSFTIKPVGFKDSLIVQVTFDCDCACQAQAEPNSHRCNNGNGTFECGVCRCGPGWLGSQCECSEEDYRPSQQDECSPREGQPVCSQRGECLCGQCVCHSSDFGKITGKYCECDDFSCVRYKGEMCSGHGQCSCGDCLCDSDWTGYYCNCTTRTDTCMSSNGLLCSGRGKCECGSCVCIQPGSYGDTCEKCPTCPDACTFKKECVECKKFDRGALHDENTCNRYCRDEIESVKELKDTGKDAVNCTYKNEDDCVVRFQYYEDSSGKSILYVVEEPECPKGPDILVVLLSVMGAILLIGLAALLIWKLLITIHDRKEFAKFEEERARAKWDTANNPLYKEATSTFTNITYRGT
Chain of Integrin alpha-V/beta-3 (P06756 31-889 limits assumed): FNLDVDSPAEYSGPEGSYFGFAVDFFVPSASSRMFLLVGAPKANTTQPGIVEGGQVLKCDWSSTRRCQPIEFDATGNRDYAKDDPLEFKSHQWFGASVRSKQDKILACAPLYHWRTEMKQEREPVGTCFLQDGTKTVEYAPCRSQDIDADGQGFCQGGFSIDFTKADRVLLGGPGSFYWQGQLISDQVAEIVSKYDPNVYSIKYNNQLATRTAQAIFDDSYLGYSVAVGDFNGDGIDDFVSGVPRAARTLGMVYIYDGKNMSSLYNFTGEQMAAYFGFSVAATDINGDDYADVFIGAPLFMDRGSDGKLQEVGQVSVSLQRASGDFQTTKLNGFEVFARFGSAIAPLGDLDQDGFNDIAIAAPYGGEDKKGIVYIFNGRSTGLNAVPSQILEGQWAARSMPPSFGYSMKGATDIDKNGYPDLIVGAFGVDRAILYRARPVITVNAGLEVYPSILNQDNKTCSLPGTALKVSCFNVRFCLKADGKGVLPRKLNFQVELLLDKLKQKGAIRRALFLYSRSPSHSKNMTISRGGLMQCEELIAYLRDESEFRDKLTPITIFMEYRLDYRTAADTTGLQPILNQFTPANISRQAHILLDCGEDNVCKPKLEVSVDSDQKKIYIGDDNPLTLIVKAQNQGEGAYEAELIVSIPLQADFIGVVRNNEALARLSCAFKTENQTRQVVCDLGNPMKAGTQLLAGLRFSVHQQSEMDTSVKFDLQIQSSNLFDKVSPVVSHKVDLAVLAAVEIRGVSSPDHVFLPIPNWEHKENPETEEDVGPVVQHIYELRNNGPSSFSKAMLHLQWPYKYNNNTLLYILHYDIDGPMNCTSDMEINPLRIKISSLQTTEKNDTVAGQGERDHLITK
Chain of Integrin alpha-V/beta-3 (P06756 891-1048 limits assumed): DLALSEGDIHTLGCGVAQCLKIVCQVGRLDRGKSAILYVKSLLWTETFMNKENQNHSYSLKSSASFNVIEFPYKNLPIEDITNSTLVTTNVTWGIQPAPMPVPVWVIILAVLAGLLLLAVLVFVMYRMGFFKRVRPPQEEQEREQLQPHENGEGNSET
T1 sequence (P06756 31-889 limits assumed): as the sequence (P06756 31-889 limits assumed) above
T1 sequence (P06756 891-1048 limits assumed): as the sequence (P06756 891-1048 limits assumed) above
T1 sequence (P18564 22-788 limits assumed): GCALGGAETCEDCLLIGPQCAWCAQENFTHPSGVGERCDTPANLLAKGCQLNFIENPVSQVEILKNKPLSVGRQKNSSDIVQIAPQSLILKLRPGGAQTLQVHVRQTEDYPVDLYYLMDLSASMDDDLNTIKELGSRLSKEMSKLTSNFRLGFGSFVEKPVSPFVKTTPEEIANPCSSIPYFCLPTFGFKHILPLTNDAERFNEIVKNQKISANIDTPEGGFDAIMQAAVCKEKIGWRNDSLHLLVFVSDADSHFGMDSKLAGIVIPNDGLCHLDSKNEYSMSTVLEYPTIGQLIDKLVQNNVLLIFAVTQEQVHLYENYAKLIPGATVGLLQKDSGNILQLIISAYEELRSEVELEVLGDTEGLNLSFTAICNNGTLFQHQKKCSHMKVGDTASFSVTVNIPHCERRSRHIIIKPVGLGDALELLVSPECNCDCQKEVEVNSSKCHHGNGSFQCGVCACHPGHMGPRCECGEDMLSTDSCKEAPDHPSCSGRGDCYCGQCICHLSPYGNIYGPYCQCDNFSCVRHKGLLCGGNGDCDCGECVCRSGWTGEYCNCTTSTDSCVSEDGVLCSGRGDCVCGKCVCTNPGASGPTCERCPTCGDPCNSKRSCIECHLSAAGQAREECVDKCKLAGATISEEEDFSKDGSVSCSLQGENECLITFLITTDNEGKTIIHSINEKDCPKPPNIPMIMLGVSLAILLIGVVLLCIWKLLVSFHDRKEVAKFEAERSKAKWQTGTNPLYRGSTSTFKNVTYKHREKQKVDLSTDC

| Compound | IC50 (Integrin alpha-V/beta-3) [nM] | IC50 (Integrin alpha-V/beta-6 [1]) [nM] | IC50 (Integrin alpha-V/beta-6 [2]) [nM] |
| --- | --- | --- | --- |
| O=C(O)C[C@H](NC(=O)CNC(=O)c1cc(O)cc(N=C2NCC(O)CN2)c1)c1cc(Br)cc(Cl)c1O (stereo not given in full) | 2.7 | – | – |
| O=C(O)C[C@@H](NC(=O)CNC(=O)c1cncc(NC2=NCC(O)CN2)c1)c1cc(Br)cc(Br)c1O (stereo not given in full) | 2 | 1760 | – |
| O=C(O)C[C@@H](NC(=O)CNC(=O)c1cccc(NC2=NCCCN2)c1)c1cc(Br)cc(Cl)c1O | 8 | 88 | – |
| O=C(O)C[C@H](NC(=O)CNC(=O)c1cccc(NC2=NCC(O)CN2)c1)c1cc(Cl)cc(Br)c1O (stereo not given in full) | 0.6 | – | – |
| O=C(O)C[C@@H](NC(=O)CNC(=O)c1cncc(NC2=NCC(O)CN2)c1)c1cc(Br)cc(Cl)c1O (stereo not given in full) | 1 | 22800 | – |
| O=C(O)C[C@H](NC(=O)CNC(=O)c1cc(O)cc(NC2=NCCCN2)c1)c1cc(Cl)cc(Cl)c1O | 0.9 | – | – |
| O=C(O)C[C@H](NC(=O)CNC(=O)c1cncc(NC2=NCC(O)CN2)c1)c1cc(Br)cc(Cl)c1O (stereo not given in full) | 0.3 | – | – |
| O=C(O)C[C@@H](NC(=O)CNC(=O)c1cccc(NC2=NCC(O)CN2)c1)c1cc(Br)cc(Cl)c1O (stereo not given in full) | 8 | 48 | – |
| O=C(O)C[C@@H](NC(=O)CNC(=O)c1cccc(N=C2NCC(F)CN2)c1)c1cc(Cl)cc(Br)c1O (stereo not given in full) | 1 | 1420 | – |
| Nc1cc(NC2=NCC(O)CN2)cc(C(=O)NCC(=O)N[C@H](CC(=O)O)c2cc(Cl)cc(Br)c2O)c1 (stereo not given in full) | 22 | 8620 | – |
| O=C(O)C[C@@H](NC(=O)CNC(=O)c1cccc(NC2=NCCCN2)c1)c1cc(Cl)cc(Cl)c1O | 4 | 24 | – |
| O=C(O)C[C@H](NC(=O)CNC(=O)c1cc(O)cc(N=C2NCC(O)CN2)c1)c1cc(Cl)cc(Cl)c1O (stereo not given in full) | 0.9 | – | – |
| O=C(O)C[C@H](NC(=O)CNC(=O)c1cncc(N=C2NCC(O)CN2)c1)c1cc(Cl)cc(Br)c1O (stereo not given in full) | 0.4 | – | – |
| O=C(O)C[C@@H](NC(=O)CNC(=O)c1cccc(N=C2NCC(F)CN2)c1)c1cc(Cl)cc(Cl)c1O (stereo not given in full) | 1 | 16 | – |
| O=C(O)C[C@@H](NC(=O)CNC(=O)c1cc(O)cc(NC2=NCC(O)CN2)c1)c1cc(Cl)cc(Cl)c1O (stereo not given in full) | 3 | – | 64 |
| O=C(O)C[C@H](NC(=O)CNC(=O)c1cc(O)cc(NC2=NCCCN2)c1)c1cc(Cl)cc(Br)c1O | 2 | – | – |
| Nc1cc(NC2=NCC(O)CN2)cc(C(=O)NCC(=O)N[C@H](CC(=O)O)c2cc(Br)cc(Cl)c2O)c1 (stereo not given in full) | 33 | 216 | – |
| O=C(O)C[C@H](NC(=O)CNC(=O)c1cccc(NC2=NCC(O)CN2)c1)c1cc(Cl)cc(Cl)c1O (stereo not given in full) | 0.3 | – | – |
| O=C(O)C[C@@H](NC(=O)CNC(=O)c1cc(O)cc(NC2=NCC(F)(F)CN2)c1)c1cc(Cl)cc(Br)c1O | 5 | 7260 | – |
| O=C(O)C[C@@H](NC(=O)CNC(=O)c1cncc(NC2=NCC(O)CN2)c1)c1cc(Cl)cc(Br)c1O (stereo not given in full) | 1 | – | 615 |

The next lines start with the values.

| IC50 (Integrin alpha-V/beta-3) [nM] | IC50 (Integrin alpha-V/beta-6 [1]) [nM] | IC50 (Integrin alpha-V/beta-6 [2]) [nM] | Compound |
| --- | --- | --- | --- |
| 6.4 | – | – | O=C(O)C[C@H](NC(=O)CNC(=O)c1cc(O)cc(NC2=NCC(O)CN2)c1)c1cc(Cl)cc(I)c1O (stereo not given in full) |
| 3 | 71 | – | O=C(O)C[C@@H](NC(=O)CNC(=O)c1cc(O)cc(NC2=NCC(F)CN2)c1)c1cc(Br)cc(Cl)c1O (stereo not given in full) |
| 1 | 42 | – | O=C(O)C[C@@H](NC(=O)CNC(=O)c1cc(O)cc(NC2=NCC(F)CN2)c1)c1cc(Cl)cc(Cl)c1O (stereo not given in full) |
| 2 | 25 | – | O=C(O)C[C@@H](NC(=O)CNC(=O)c1cccc(NC2=NCC(F)CN2)c1)c1cc(Br)cc(Cl)c1O (stereo not given in full) |
| 7 | 2790 | – | Nc1cc(NC2=NCC(O)CN2)cc(C(=O)NCC(=O)N[C@H](CC(=O)O)c2cc(Br)cc(Br)c2O)c1 (stereo not given in full) |
| 5 | 20 | – | O=C(O)C[C@@H](NC(=O)CNC(=O)c1cc(O)cc(NC2=NCC(F)CN2)c1)c1cc(Br)cc(Br)c1 (stereo not given in full) |
| 56 | 49 | – | Cc1cc(C)cc([C@@H](CC(=O)O)NC(=O)CNC(=O)c2cc(O)cc(NC3=NCC(F)CN3)c2)c1 (stereo not given in full) |
| 2.6 | – | – | O=C(O)C[C@H](NC(=O)CNC(=O)c1cc(O)cc(NC2=NCC(O)CN2)c1)c1cc(Cl)cc(Br)c1O (stereo not given in full) |
| 13 | 11 | – | O=C(O)C[C@@H](NC(=O)CNC(=O)c1cc(O)cc(NC2=NCC(F)CN2)c1)c1cc(Br)cc(I)c1 (stereo not given in full) |
| 5 | 57 | – | O=C(O)C[C@@H](NC(=O)CNC(=O)c1cc(O)cc(NC2=NCC(F)CN2)c1)c1cc(Cl)cc(Br)c1 (stereo not given in full) |
| 11 | 40 | – | O=C(O)C[C@@H](NC(=O)CNC(=O)c1cc(O)cc(NC2=NCC(F)CN2)c1)c1cc(Cl)cc(Cl)c1 (stereo not given in full) |
| 7 | 588 | – | O=C(O)C[C@@H](NC(=O)CNC(=O)c1cc(O)cc(NC2=NCC(O)CN2)c1)c1cc(Br)cc(Cl)c1O (stereo not given in full) |
| 0.2 | – | – | Cc1cc(Cl)cc([C@H](CC(=O)O)NC(=O)CNC(=O)c2cc(O)cc(NC3=NCC(O)CN3)c2)c1O (stereo not given in full) |
